Target: AR / CBP ternary complex (Homo sapiens, UniProt P10275+Q92793)
Experiment: Ternary complex formation assay (sandwich ELISA, AR capture, CBP antibody detection) in VCaP cell lysates
Format: cell-based
Settings: treated 1.5 hours, rabbit CBP or p300 antibody detection, average, read-out: Average Ternary Complex
Method: Black MaxiSorp plates: coat with 50 μL of mouse 1/50 diluted AR antibody (Monoclonal Antibody (AR 441 from Thermo Fisher); diluted in phosphate buffered saline (PBS). Spin the liquid to the bottom of the wells, if necessary. Incubate overnight at 4° C. Next day, wash 3 times with 200 μL of TBST. Block with 200 μL of blocking buffer (5% BSA in TBST) at room temperature for 2 hours (BSA: A4503 or A2153 from Sigma). Wash plates 3 times with TBST. Plates are ready for lysates Preparation of dimerizer treated lysates
Culture cells in 96 wells at 50K VCaP cells/well for at least 3 days. Plate in 5% Omega charcoal stripped FBS in total volume of 200 uL. Treat with bifunctional for 1.5 hours by adding 1 μL of 200× stock in DMSO. Aspirate media/compound. Add and pipet-to-mix 70 μL of 1× AlphaLisa Lysis Buffer to each well (Perkin Elmer, AlphaLISA SureFire Ultra, diluted in water). Pipet up and down when adding lysis buffer to disrupt cells. Let lysis proceed for 30 min at 4° C.
Incubate for 1 hour at room temperature. Flick out the lysates. Wash 3 times with TBST. Add 75 μL of rabbit CBP or p300 antibody to each well (diluted 1:5000 in blocking buffer (5% BSA in TBST). CBP antibody: (D6C5) Rabbit mAb #7389; p300 antibody: (D8Z4E) Rabbit mAb #86377. Incubate overnight at 4° C. Wash 3 times with 300 uL TBST, each time on shaker for 5-10 min. Prepare goat anti-rabbit antibody conjugated to HRP (1/100K dilution in blocking buffer) Invitrogen Catalog number: 32260. Add 75 μL of HRP-conjugated goat anti-rabbit antibody. Incubate at room temperature for 1 hour. Flick out the HRP-antibody mixture. Wash 7-8 times with TBST, each time on shaker for 10 min. Later washes try to overflow the wells so that no residual HRP remains bound to the sides of the well. Prepare and add 75 uL/well of QuantaRed Enhance Chemifluorescent HRP Substrate solution. Immediately read fluorescence on BMG ClarioStar (ex: 570/em 585), and repeat the read in 5 minutes and 15 minutes.

Chain of AR / CBP ternary complex (P10275 whole entry): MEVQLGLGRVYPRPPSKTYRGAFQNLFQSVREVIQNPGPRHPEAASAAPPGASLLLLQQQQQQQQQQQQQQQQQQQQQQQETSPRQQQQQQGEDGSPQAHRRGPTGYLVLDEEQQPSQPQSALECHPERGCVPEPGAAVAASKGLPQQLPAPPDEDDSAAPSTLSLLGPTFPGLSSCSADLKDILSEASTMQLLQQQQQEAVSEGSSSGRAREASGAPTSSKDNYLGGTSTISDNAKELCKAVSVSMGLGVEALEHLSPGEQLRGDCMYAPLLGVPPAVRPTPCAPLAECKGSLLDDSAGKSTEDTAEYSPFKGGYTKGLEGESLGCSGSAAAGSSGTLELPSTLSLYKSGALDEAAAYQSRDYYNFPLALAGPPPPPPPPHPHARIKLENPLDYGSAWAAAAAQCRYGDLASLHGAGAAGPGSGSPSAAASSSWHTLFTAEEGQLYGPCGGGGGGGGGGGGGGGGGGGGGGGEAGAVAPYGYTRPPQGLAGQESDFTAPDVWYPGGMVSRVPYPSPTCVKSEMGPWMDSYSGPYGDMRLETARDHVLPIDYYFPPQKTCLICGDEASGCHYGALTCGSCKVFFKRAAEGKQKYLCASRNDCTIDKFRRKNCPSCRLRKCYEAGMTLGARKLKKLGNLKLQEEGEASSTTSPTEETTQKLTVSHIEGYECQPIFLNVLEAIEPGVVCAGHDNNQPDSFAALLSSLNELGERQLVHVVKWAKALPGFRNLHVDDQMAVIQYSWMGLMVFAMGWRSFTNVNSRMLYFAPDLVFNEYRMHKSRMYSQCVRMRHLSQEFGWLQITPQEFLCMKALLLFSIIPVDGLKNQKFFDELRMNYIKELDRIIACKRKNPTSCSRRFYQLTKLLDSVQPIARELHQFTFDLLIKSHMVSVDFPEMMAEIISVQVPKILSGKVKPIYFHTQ
Chain of AR / CBP ternary complex (Q92793 2-2442): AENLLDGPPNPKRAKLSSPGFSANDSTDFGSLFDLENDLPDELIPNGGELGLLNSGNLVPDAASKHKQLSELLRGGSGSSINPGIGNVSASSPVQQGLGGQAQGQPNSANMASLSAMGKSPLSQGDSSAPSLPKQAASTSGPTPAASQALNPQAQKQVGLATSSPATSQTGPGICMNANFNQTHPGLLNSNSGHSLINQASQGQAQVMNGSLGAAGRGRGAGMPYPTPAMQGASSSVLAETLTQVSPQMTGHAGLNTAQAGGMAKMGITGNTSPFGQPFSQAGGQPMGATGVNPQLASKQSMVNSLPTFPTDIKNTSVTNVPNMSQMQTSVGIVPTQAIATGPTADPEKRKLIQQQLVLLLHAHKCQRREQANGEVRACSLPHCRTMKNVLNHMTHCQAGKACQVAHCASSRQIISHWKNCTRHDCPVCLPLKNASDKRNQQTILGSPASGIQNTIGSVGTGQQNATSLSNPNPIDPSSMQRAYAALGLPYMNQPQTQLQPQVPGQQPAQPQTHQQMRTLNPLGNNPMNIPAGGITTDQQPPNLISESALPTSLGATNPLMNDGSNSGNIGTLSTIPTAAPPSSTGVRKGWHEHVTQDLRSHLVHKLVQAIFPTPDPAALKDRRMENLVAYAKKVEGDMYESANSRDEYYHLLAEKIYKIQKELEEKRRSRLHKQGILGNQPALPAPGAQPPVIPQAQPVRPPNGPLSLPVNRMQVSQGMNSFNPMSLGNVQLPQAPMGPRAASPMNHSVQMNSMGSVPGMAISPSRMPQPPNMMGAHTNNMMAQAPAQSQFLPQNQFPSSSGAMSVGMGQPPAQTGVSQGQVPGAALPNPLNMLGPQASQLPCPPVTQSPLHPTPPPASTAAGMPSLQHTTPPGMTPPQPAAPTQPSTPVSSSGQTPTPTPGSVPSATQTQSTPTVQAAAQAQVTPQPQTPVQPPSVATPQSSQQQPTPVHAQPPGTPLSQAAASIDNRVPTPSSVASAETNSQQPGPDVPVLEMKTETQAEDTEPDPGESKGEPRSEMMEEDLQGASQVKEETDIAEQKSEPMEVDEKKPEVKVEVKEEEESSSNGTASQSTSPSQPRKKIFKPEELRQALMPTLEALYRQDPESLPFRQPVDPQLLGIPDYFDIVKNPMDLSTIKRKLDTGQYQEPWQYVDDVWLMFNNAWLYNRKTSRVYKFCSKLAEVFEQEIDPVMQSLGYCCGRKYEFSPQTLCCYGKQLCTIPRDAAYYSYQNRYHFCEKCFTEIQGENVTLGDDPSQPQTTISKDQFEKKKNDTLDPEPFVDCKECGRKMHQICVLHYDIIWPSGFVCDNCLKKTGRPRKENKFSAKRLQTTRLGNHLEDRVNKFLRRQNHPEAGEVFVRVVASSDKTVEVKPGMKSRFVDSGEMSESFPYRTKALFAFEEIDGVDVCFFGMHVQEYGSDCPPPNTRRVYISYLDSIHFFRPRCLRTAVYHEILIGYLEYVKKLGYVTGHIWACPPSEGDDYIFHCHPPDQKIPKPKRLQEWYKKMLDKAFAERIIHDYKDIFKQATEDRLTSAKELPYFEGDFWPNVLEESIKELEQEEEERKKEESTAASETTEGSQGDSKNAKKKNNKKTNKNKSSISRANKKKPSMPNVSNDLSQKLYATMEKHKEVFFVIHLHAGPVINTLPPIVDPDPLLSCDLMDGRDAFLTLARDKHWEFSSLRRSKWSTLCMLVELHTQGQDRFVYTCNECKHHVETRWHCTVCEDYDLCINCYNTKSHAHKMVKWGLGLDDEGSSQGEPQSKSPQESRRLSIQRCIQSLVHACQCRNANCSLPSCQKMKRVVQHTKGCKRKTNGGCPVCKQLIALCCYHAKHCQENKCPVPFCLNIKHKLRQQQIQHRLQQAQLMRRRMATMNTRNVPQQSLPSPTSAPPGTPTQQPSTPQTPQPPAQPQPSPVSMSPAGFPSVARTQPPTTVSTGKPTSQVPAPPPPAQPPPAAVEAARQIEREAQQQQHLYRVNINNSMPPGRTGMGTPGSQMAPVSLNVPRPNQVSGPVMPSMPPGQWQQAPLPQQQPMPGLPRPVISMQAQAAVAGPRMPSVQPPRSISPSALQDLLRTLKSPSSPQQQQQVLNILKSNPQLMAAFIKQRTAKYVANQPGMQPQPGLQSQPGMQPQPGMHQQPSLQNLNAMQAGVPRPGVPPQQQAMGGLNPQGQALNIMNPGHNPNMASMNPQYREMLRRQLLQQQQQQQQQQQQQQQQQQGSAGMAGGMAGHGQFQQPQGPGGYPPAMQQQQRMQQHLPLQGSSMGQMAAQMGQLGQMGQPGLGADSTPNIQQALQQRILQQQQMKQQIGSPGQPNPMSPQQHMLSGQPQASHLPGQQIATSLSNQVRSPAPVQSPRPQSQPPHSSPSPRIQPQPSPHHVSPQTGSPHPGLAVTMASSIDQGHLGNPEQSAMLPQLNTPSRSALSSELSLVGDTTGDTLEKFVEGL

Compared with `CC(=O)N1CCc2c(c(N3CCCc4cc(-c5cnn(C)c5)c(C(F)F)cc43)nn2C2CCN(C3CC4(CCN(c5ccc(C(=O)N[C@H]6CC[C@H](Oc7ccc(C#N)c(Cl)c7)CC6)nn5)C4)C3)CC2)C1` (stereo partly shown) [Compound 228, 6-[2-[4-[5-acetyl-3-[7-(difluoromethyl)-6-(1-methylpyrazol-4-yl)-3,4-dihydro-2H-quinolin-1-yl]-6,7-dihydro-4H-pyrazolo[4,3-c]pyridin-1-yl]-1-piperidyl]-6-azaspiro [3.4]octan-6-yl]-N-[4-(3-chloro-4-cyano-phenoxy)cyclohexyl] pyridazine-3-carboxamide], `CC(=O)N1CCc2c(c(N3CCCc4cc(-c5cnn(C)c5)c(C(F)F)cc43)nn2[C@H]2CC[C@]3(CCN(c4ccc(C(=O)N[C@H]5CC[C@H](Oc6ccc(C#N)c(Cl)c6)CC5)nn4)C3)CC2)C1` [Compound 264, 6-[8-[5-acetyl-3-[7-(difluoromethyl)-6-(1-methylpyrazol-4-yl)-3,4-dihydro-2H-quinolin-1-yl]-6,7-dihydro-4H-pyrazolo[4,3-c]pyridin-1-yl]-2-azaspiro[4.5]decan-2-yl]-N-[4-(3-chloro-4-cyano-phenoxy)cyclohexyl]pyridazine-3-carboxamide] is higher in EC50: less than 1 nM for the first, greater than 100 nM for the second. The first is the more potent here.

`CC(=O)N1CCc2c(c(-c3cccc4cc(-c5cnn(CCN6CCN(c7ccc(C(=O)N[C@H]8CC[C@H](Oc9ccc(C#N)c(Cl)c9)CC8)nn7)CC6)c5)ncc34)nn2C2CCOCC2)C1` [Compound 29, 6-[4-[2-[4-[8-(5-acetyl-1-tetrahydropyran-4-yl-6,7-dihydro-4H-pyrazolo[4,3-c]pyridin-3-yl)-3-isoquinolyl]pyrazol-1-yl]ethyl]piperazin-1-yl]-N-[4-(3-chloro-4-cyano-phenoxy)cyclohexyl]pyridazine-3-carboxamide] and `CC(=O)N1CCc2c(c(N3CCCc4cc(-c5cnn(C)c5)c(C(F)F)cc43)nn2C2CCN(CC3(F)CCN(c4ccc(C(=O)N[C@H]5CC[C@H](Oc6ccc(C#N)c(Cl)c6)CC5)nn4)CC3)CC2)C1` [Compound 142, 6-[4-[[4-[5-acetyl-3-[7-(difluoromethyl)-6-(1-methylpyrazol-4-yl)-3,4-dihydro-2H-quinolin-1-yl]-6,7-dihydro-4H-pyrazolo[4,3-c]pyridin-1-yl]-1-piperidyl]methyl]-4-fluoro-1-piperidyl]-N-[4-(3-chloro-4-cyano-phenoxy)cyclohexyl]pyridazine-3-carboxamide] cannot be ordered by EC50: less than 1 nM for the first, less than 1 nM for the second.

`CC(=O)N1CCc2c(c(N3CCCc4cc(-c5cnn(C)c5)c(C(F)F)cc43)nn2C2CCc3c(cnn3C3CCN(c4ccc(C(=O)N[C@H]5CC[C@H](Oc6ccc(C#N)c(Cl)c6)CC5)nn4)CC3)C2)C1` (stereo partly shown) [Compound 178, 6-[4-[5-[5-acetyl-3-[7-(difluoromethyl)-6-(1-methylpyrazol-4-yl)-3,4-dihydro-2H-quinolin-1-yl]-6,7-dihydro-4H-pyrazolo[4,3-c]pyridin-1-yl]-4,5,6,7-tetrahydroindazol-1-yl]-1-piperidyl]-N-[4-(3-chloro-4-cyano-phenoxy)cyclohexyl]pyridazine-3-carboxamide] and `CC(=O)N1CCc2c(c(N3CCCc4cc(-c5cnn(C)c5)c(C(F)F)cc43)nn2C2CCN(C(=O)C3CCN(c4nnc(C(=O)N[C@H]5CC[C@H](Oc6ccc(C#N)c(Cl)c6)CC5)s4)CC3)CC2)C1` [Compound 226, 5-[4-[4-[5-acetyl-3-[7-(difluoromethyl)-6-(1-methylpyrazol-4-yl)-3,4-dihydro-2H-quinolin-1-yl]-6,7-dihydro-4H-pyrazolo[4,3-c]pyridin-1-yl]piperidine-1-carbonyl]-1-piperidyl]-N-[4-(3-chloro-4-cyano-phenoxy)cyclohexyl]-1,3,4-thiadiazole-2-carboxamide] cannot be ordered by EC50: less than 1 nM for the first, less than 1 nM for the second.

`CC(=O)N1CCc2c(c(N3CCCc4cc(-c5cnn(C)c5)c(C(F)F)cc43)nn2C2CCN(CC3C(C)CN(c4ccc(C(=O)N[C@H]5CC[C@H](Oc6ccc(C#N)c(C(F)(F)F)c6)CC5)nn4)CC3C)CC2)C1` (stereo partly shown) [Compound 290, 6-[4-[[4-[5-acetyl-3-[7-(difluoromethyl)-6-(1-methylpyrazol-4-yl)-3,4-dihydro-2H-quinolin-1-yl]-6,7-dihydro-4H-pyrazolo[4,3-c]pyridin-1-yl]-1-piperidyl]methyl]-3,5-dimethyl-1-piperidyl]-N-[4-[4-cyano-3-(trifluoromethyl)phenoxy]cyclohexyl]pyridazine-3-carboxamide] and `CC(=O)N1CCc2c(c(N3CCCc4cc(-c5cnn(C)c5)c(C)cc43)nn2C2CCN(CC3CCN(c4ccc(C(=O)N[C@H]5CC[C@H](Oc6ccc(C#N)c(C(F)(F)F)c6)CC5)nn4)CC3(C)C)CC2)C1` (stereo partly shown) [Compound 294] cannot be ordered by EC50: less than 1 nM for the first, less than 1 nM for the second.

`CC(=O)N1CCc2c(c(N3CCCc4cc(C#N)c(C)cc43)nn2C2CCN(C[C@H]3[C@H](C)CN(c4ccc(C(=O)N[C@H]5CC[C@H](Oc6ccc(C#N)c(Cl)c6)CC5)nn4)C[C@@H]3C)CC2)C1` [Compound 285] was tested, and the EC50 was less than 1 nM.

Tested on: VCaP cells
Experiment: VCaP growth inhibition assay (CTG)
Format: cell-based
Settings: Homo sapiens, 216 h, 30 pM R1881, 9 days
Method: VCaP cells (ATCC Cat #CRL-2876) are plated at 1×10^4 cells per well of a white plastic 96-well cluster plate (Thermo Scientific Nunc Cat #165306) in 100 uL phenol red-free DMEM (Gibco Cat #21063-029) media with 5% CSS (Omega Scientific Cat #FB-04). Cluster plates are returned to the incubator (37*C/5% CO2) for 72 hours prior to treatment. Just prior to treatment, 100 uL of phenol red-free DMEM/5% CSS and 60 pM R1881 (Sigma Cat #R0908-10 mg) was added to each well of the cluster plates (Final R1881 concentration=30 pM). Compounds (200X) were added to each well in a volume of 1 uL, with serial dilutions (1:5) from 20 uM to 2 pM (final concentrations in well are 100 nM to 10 fM). Cluster plates are returned to the incubator for 9 days.
After the 9-day treatment period, media was removed from the cluster plates by inversion and 100 uL room temperature CTG reagent (Promega Cat #G7573) is added to each well. The cluster plates are placed on a shaker and incubated at room temperature for 20 minutes. Following this shaking/incubation, cluster plates are read on a luminometer (BMG ClarioStar). IC50 values are obtained by graphing the RLU data vs. compound concentration with nonlinear regression 4-parameter logistic curves (GraphPad Prism).

`CC(=O)N1CCc2c(c(-c3cccc4cc(-c5cnn(CC6CCN(c7ccc(C(=O)N[C@H]8CC[C@H](Oc9ccc(C#N)c(Cl)c9)CC8)nn7)CC6)c5)ncc34)nn2C)C1` [Compound 7, 6-[4-[[4-[8-(5-acetyl-1-methyl-6,7-dihydro-4H-pyrazolo[4,3-c]pyridin-3-yl)-3-isoquinolyl]pyrazol-1-yl]methyl]-1-piperidyl]-N-[4-(3-chloro-4-cyano-phenoxy)cyclohexyl]pyridazine-3-carboxamide] and `CC(=O)N1CCc2c(c(N3CCCc4cc(-c5cnn(C)c5)c(C(F)F)cc43)nn2[C@H]2CC[C@H](N(C)C3CCN(c4ccc(C(=O)N[C@H]5CC[C@H](Oc6ccc(C#N)c(Cl)c6)CC5)nn4)CC3)CC2)C1` [Compound 187, 6-[4-[[4-[5-acetyl-3-[7-(difluoromethyl)-6-(1-methylpyrazol-4-yl)-3,4-dihydro-2H-quinolin-1-yl]-6,7-dihydro-4H-pyrazolo[4,3-c]pyridin-1-yl]cyclohexyl]-methyl-amino]-1-piperidyl]-N-[4-(3-chloro-4-cyano-phenoxy)cyclohexyl]pyridazine-3-carboxamide] cannot be ordered by IC50: no more than 0.1 nM for the first, no more than 0.1 nM for the second.

`CC(=O)N1CCc2c(c(N3CCCc4cc(-c5ccc(OC6CC7(CCN(c8ccc(C(=O)N[C@H]9CC[C@H](Oc%10ccc(C#N)c(Cl)c%10)CC9)nn8)CC7)C6)nc5)c(C(F)F)cc43)nn2C2CCOCC2)C1` [Compound 202, 6-[2-[[5-[1-(5-acetyl-1-tetrahydropyran-4-yl-6,7-dihydro-4H-pyrazolo[4,3-c]pyridin-3-yl)-7-(difluoromethyl)-3,4-dihydro-2H-quinolin-6-yl]-2-pyridyl]oxy]-7-azaspiro[3.5]nonan-7-yl]-N-[4-(3-chloro-4-cyano-phenoxy)cyclohexyl]pyridazine-3-carboxamide] and `COC1(CN2CCC(n3nc(N4CCCc5cc(-c6cnn(C)c6)c(C(F)F)cc54)c4c3CCN(C(C)=O)C4)CC2)CCN(c2ccc(C(=O)N[C@H]3CC[C@H](Oc4ccc(C#N)c(Cl)c4)CC3)nn2)CC1` [Compound 177, 6-[4-[[4-[5-acetyl-3-[7-(difluoromethyl)-6-(1-methylpyrazol-4-yl)-3,4-dihydro-2H-quinolin-1-yl]-6,7-dihydro-4H-pyrazolo [4,3-c]pyridin-1-yl]-1-piperidyl]methyl]-4-methoxy-1-piperidyl]-N-[4-(3-chloro-4-cyano-phenoxy)cyclohexyl]pyridazine-3-carboxamide] cannot be ordered by IC50: 0.1 to 1 nM for the first, no more than 0.1 nM for the second.

From US20250136578A1 (Kolm Therapeutics Inc., priority 2023, published 2025)
